Measurements: paper PMC10324113, “Gut microbiome modulates tacrolimus pharmacokinetics through the transcriptional regulation of ABCB1” (Microbiome, 2023)
One block for each compound: values may come before it.

How the values were obtained:
[1] = cited from earlier work
[2] = biological target: T1, ABCB1 (Homo sapiens, UniProt P08183); test: ABCB1 functionality assay: rhodamine 123 intracellular accumulation in HEK293 recombinant cells; type: cell-based; settings: 5 μM Rh123, 90 min, PBS condition
T1 construct: expressed in transfected cells
T1 sequence (P08183 whole entry): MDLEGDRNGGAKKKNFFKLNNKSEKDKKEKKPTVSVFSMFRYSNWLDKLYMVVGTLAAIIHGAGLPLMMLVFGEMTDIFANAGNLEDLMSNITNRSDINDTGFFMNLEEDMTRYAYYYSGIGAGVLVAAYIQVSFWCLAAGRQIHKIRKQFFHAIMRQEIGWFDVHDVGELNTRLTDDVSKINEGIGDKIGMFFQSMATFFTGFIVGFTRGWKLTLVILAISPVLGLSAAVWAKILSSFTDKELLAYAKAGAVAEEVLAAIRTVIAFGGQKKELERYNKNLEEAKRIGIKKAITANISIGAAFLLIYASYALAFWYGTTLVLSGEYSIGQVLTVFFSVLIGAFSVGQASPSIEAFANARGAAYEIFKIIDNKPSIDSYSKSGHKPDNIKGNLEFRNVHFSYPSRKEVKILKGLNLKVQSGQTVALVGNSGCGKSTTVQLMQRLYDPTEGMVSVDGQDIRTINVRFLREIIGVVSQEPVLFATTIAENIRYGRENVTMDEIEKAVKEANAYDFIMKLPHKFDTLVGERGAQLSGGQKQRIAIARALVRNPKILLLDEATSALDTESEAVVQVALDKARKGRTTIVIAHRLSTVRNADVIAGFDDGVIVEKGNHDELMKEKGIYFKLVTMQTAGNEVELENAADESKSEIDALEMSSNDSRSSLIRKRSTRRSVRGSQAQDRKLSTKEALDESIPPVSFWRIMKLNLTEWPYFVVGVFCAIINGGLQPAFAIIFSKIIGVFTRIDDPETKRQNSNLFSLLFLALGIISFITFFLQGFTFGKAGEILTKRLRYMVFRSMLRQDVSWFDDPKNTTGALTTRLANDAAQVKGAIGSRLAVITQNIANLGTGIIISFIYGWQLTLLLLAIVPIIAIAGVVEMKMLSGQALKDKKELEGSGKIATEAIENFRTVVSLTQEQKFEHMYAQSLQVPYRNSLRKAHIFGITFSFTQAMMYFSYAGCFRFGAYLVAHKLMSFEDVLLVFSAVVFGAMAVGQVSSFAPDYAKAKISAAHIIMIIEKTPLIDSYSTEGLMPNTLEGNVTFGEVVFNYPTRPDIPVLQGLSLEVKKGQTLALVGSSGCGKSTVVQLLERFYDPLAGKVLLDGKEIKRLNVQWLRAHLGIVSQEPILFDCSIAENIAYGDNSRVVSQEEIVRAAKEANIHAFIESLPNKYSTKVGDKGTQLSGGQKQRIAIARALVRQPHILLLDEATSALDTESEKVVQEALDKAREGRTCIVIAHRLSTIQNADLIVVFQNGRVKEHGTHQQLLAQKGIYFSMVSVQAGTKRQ
Description: First, we tested the impact of FW on the intrinsic ABCB1 efflux functionality. The intracellular accumulation of rhodamine 123 (Rh123), a fluorescent-specific substrate of ABCB1 [39, 40], was performed in HEK293 recombinant cells. Rh123 accumulation was compared between control cells (Control plasmid) expressing low basal levels of ABCB1 and stably transfected cells overexpressing ABCB1 (ABCB1 plasmid), pre-exposed or not to FW for 15 min (Fig. 8A).
Briefly, HEK293 cells were transfected with a plasmid encoding for ABCB1 (ABCB1 plasmid) or an empty vector (control plasmid). HEK293 cells feature low endogenous levels of expression of ABCB1, ensuring that all ABCB1 expression originates from the transfection process. […] Finally, the cells were washed with buffer and resuspended before being analysed using a BD FACSVerse flow cytometer (for characterization) or BD FACSAria III (for cell sorting) and the BD FACSuite software (BD Bioscience, USA). […]
One day before the experiment, 9*10^4 cells (HEK293) were plated in poly-L-lysine-coated black 96-well plates in complete medium. […] Finally, the intracellular fluorescence of Rh123 was analysed by a fluorimeter SpectraMax i3x (Molecular Devices, USA); excitation wavelength was set at 485 nm and emission at 530 nm.

[3] = Tacrolimus whole blood pharmacokinetics after oral gavage in mice (HPLC-MS/MS, population PK model); settings: for AUC: TAC AUC (population PK-derived)
Description: TAC was suspended in a mix of water and propylene glycol (90:10), 3 to 5 days before the first administration and kept at 4 °C. […] TAC was first dissolved in propylene glycol, then the water was added. The suspension was homogenized using an ultrasonic homogenizer 3 times for 15 s (QSonica Q700 sonicator, QSonica LLC., USA). TAC concentration was always checked before the first and after the last gavage to control for the dose. TAC or the vehicle was administered once a day (always at the same period) by oral gavage. A dose of 3 mg of TAC/kg of body weight was administered for 5 days, except in the dose determination study where different escalating doses (from 0.1 to 10 mg/kg of body weight) were tested (4 days of treatment).
It was administered via drinking water and renewed every other day.
Zosuquidar (ZSQ) was suspended in aqueous 0.5% methylcellulose (based on Matsuda et al.). A single dose of 30 mg/kg of body weight was administered 15 min before last TAC administration by oral gavage (based on Kono et al.).
Fresh faeces were collected and quickly frozen on dry ice before storage at − 80 °C until further analysis or use. Whole blood samples were collected from the tail of awake freely moving mice, at various time points (ranging from 1 to 24 h = T0, after last gavage). The blood sampling strategy used to generate the concentration–time curve of TAC blood levels in mice is detailed in the Supporting information. Before necropsy, mice were fasted for minimum 4 h and anesthetized with ketamine-xylazine or isoflurane. Hepatic and intestinal tissues were quickly collected and frozen in liquid nitrogen before storage at − 80 °C until further analysis.
Blood quantification of TAC was performed on a high-performance liquid chromatography-tandem mass spectrometry (HPLC–MS/MS) method, as already described elsewhere and further optimized for the small amounts of blood available in mouse PK studies. Briefly, the Agilent HPLC 1290 Infinity system is coupled to the 6460 Triple Quadrupole instrument. Fifty microlitres of whole blood was pre-treated and vortexed with 50 μl zinc sulfate 0.1 M, and 125 μl internal standard (ascomycin, 5 μg/L) in methanol. Samples were sonicated for 5 min, before 5 min of centrifugation at 13,500 rpm. Forty microlitres of the supernatant was injected into the system. The precolumn used was the 10 × 4 mm 3 μm Mercury Phenomenex, and the analytical column was the 4.6 × 50 mm 1.8 μm Agilent Zorbax Eclipse XDB C18, maintained at 60 °C. The mobile phase of pump 1 contained a mixture of H2O/methanol (40/60%), and pump 2 2 mM NH4^+ acetate, and aqueous 0.5% formic acid/ methanol (5/95%). […] The method is fully validated in terms of analytical performance (limit of quantification: 0.5 ng/ml; imprecision < 5%) and ion suppression effects. The laboratory participates to the TAC International Proficiency Testing Scheme (ASI, London, UK).
All data generated in this project (n = 351 PK data) were used to develop a population PK model of TAC in mice at steady-state with an average number of observations per subject of 3.5. Population PK modeling of TAC blood concentrations was performed with MonolixSuite-2020R1 software (Lixoft, France) using the stochastic approximation expectation–maximization (SAEM) algorithm. Between-subject variability (eta) was described using an exponential model and covariance between random effects was investigated. Three error models (i.e. proportional, additive and combined) to describe the residual error were tested. The influence of mouse treatment on PK parameters was also investigated through its association with the eta of PK parameters. Additional information on the building of the population PK model (e.g. the precise description of number of measurements per time points) is provided in the Supporting Information.

[4] = tested on: CYP3A; set-up: method as in PMID 11172691; settings: in vitro; cited from earlier work
[5] = tested on: ABCB1; set-up: method as in PMID 11172691; settings: cited from earlier work
[6] = tested on: gut microbiota; test: Faecal microbiota composition by 16S rRNA gene sequencing in TAC-treated mice; type: in vivo
Description: (§1) Genomic DNA was extracted from faeces using a QIAamp DNA Stool Mini Kit (Qiagen, Germany), including a bead-beating step. Absolute quantification of the total bacteria was performed by quantitative polymerase chain reaction (qPCR) using the primers Bacteria Universal P338f ([…]) and P518r ([…]). 16S rRNA gene sequencing and ensuing bioinformatics and biostatistics analyses (including amplicon sequence variants (ASV) identification) were performed as previously described. Full details are provided in the Supporting Information.
To evaluate the potential impact of TAC oral administration on the gut microbiota composition, we compared the faecal bacterial composition of mice treated with TAC (TAC) or with the vehicle (CTL). Faeces were collected at baseline (day 0) and after 2 and 5 days of treatment.
To assess the impact of ATB on the bacterial load, genomic DNA was extracted from faeces using the QIAamp DNA Stool Mini Kit (Qiagen, Germany) according to manufacturer’s instructions, with the addition of a bead-beating step. To assess the impact of TAC on gut microbiota composition, genomic DNA was extracted from faeces following the protocol Q described by Costea et al. This protocol uses a QIAamp DNA Stool Mini Kit (Qiagen, Germany), including a bead-beating step. Treatment with RNAse A was performed (10 mg/ml, Thermo Fisher Scientific, USA). DNA concentration was determined using a NanoDrop 2000 (Thermo Fisher Scientific, USA).
Amplicon sequencing of the microbiome was done at the University of Minnesota Genomics Center. Briefly, the V5-V6 region of the 16S rRNA gene was PCR-enriched using the primer pair V5F_Nextera ([…]) and V6R_Nextera ([…]) in a 25 μl PCR reaction containing 5 μl of template DNA, […], 500 nM of final concentration of primers and 0.025 U/μl of HostStar Taq+ polymerase (Qiagen Germany). PCR-enrichment reactions were conducted as follow, an initial denaturation step at 95°C for 5 min followed by 25 cycles of denaturation (20 s at 98°C), annealing (15 s at 55°C), and elongation (1 min at 72°C), and a final elongation step (5 min at 72°C). Next, the PCR-enriched samples were diluted 1:100 in water for input into library tailing PCR. The PCR reaction was analogous to the one conducted for enrichment except with a KAPA HiFi Hot Start Polymerase concentration of 0.25 U/μl, while the cycling conditions used were as follows: initial denaturation at 95°C for 5 min followed by 10 cycles of denaturation (20 s at 98°C), annealing (15 s at 55°C), and elongation (1 min at 72°C), and a final elongation step (5 min at 72°C). The primers used for tailing are the following: F-indexing primer […][i5][…] and R-indexing primer […][i7][…] GCTCGG, where [i5] and [i7] refer to the index sequence codes used by Illumina. The resulting 10 μl indexing PCR reactions were normalized using a SequalPrep normalization plate according to the manufacturer’s instructions (Life Technologies, USA). 20 μl of each normalized sample was pooled into a trough, and a SpeedVac was used to concentrate the sample pool down to 100 μl. The pool was then cleaned using 1X AMPureXP beads and eluted in 25 μl of nuclease-free water. The final pool was quantitated by QUBIT (Life Technologies, USA) and checked on a Bioanalyzer High-Sensitivity DNA Chip (Agilent Technologies, USA) to ensure correct amplicon size. The final pool was then normalized to 2 nM, denatured with NaOH, diluted to 8 pM in Illumina’s HT1 buffer, spiked with 20% PhiX, and heat denatured at 96°C for 2 minutes immediately prior to loading. A MiSeq 600 cycle v3 kit was used to sequence the pool. Raw sequences can be found in the SRA database (project ID: PRJNA877868).
Subsequent bioinformatics analyses were performed in-house as previously described. Initial quality filtering of the reads was performed with the Illumina Software, yielding an average of 51 929 pass-filter reads per sample. […]

[7] = tested on: total bacteria; test: Absolute quantification of total faecal bacteria by qPCR; type: in vivo; settings: CTL and TAC mice, faeces, up to 5 days
Description: as §1
To assess the impact of ATB on the bacterial load, genomic DNA was extracted from faeces using the QIAamp DNA Stool Mini Kit (Qiagen, Germany) according to manufacturer’s instructions, with the addition of a bead-beating step. […] DNA concentration was determined using a NanoDrop 2000 (Thermo Fisher Scientific, USA).
PCR was performed with a QuantStudio3 (Applied Biosystems, USA) using SYBR Green (GoTaq® qPCR mix, Promega, USA) for detection. […] Threshold was manually adjusted to reach the linear range of the log-fluorescent curves and CT values were determined using the QuantStudio software v1.4.3 (Applied Biosystems, USA). Absolute quantification was achieved through the inclusion of a standard curve (performed in duplicate) on each plate generated by diluting DNA from pure culture of L. acidophilus NCFM (five-fold serial dilution). […]

[8] = Stability of the TAC suspension for gavage; type: physicochemical; settings: suspension in water and propylene glycol (90:10), kept at 4 °C
[9] = mice, oral gavage, steady-state, mono-compartmental population PK model, mean
[10] = 5 days TAC oral vs vehicle-treated mice

SMILES: C=CCC1C=C(C)CC(C)CC(OC)C2OC(O)(C(C)CC2OC)C(O)C(=O)N2CCCCC2C(=O)OC(C(C)=CC2CCC(O)C(OC)C2)C(C)C(O)CC1=O (centres unmarked) [bacteria-derived TAC metabolite]
- bacteria-derived TAC metabolite as share of the parent drug ([1]; human, in vivo): ≤ 5 % of the parent drug

- intracellular accumulation in ABCB1 overexpressing cells vs control cells [2]: accumulated significantly less
SMILES: COC(=O)c1ccccc1-c1c2ccc(=N)cc-2oc2cc(N)ccc12 [Rh123, rhodamine 123]

SMILES: O[C@@H](COc1cccc2ncccc12)CN1CCN([C@@H]2c3ccccc3[C@@H]3[C@H](c4ccccc42)C3(F)F)CC1 [ZSQ, Zosuquidar]
- change in TAC AUC in comparison to TAC solely group ([3]; mouse, in vivo): significant increase
- Ki [4]: ~3800 nM
- affinity for CYP3A lower than for ABCB1 ([5]; CYP3A vs ABCB1): more than 60 times
- Ki [5]: ~59 nM

- increase in TAC whole blood exposure ([3]; ATB-treated vs control mice, both under ZSQ supplementation): 75%
- reduction in TAC whole blood exposure ([3]; mice with lower intestinal microbial load due to antibiotics vs controls): 33%
- time of absorption peak after the last administration ([3]; mice, 3 mg/kg oral, steady-state concentration-time curve): 2 h
- Ka (absorption rate constant) [3, 9]: 1.20 h⁻¹
- V (volume of distribution) [3, 9]: 1.88 L
- Cl/F (oral clearance) ([3]; mice, oral gavage, steady-state, mono-compartmental population PK model, mean, n = 351 blood samples in 99 mice): 0.32 L/h
- concentration at 2 h ([3]; mouse, whole blood, po, 3 mg/kg): 39.1 ng/mL
- AUC ([3]; mouse, whole blood, po, 3 mg/kg, ATB-treated mice (TAC + ATB), 3 mg/kg oral 5 days, steady-state): 131 ng·h/mL
- AUC ([3]; mouse, whole blood, po, 3 mg/kg, mice treated with TAC solely, 3 mg/kg oral 5 days, steady-state): 195 ng·h/mL
- AUC ([3]; mouse, whole blood, po, TAC + ZSQ + ATB mice, ZSQ 30 mg/kg oral 15 min before last TAC administration): 618 ng·h/mL
- AUC ([3]; mouse, whole blood, po, TAC + ZSQ mice, ZSQ 30 mg/kg oral 15 min before last TAC administration): 354 ng·h/mL
- stability of the solution validated for [8]: 15 days
SMILES: C=CC[C@@H]1/C=C(\C)C[C@H](C)C[C@H](OC)[C@H]2O[C@@](O)(C(=O)C(=O)N3CCCC[C@H]3C(=O)O[C@H](/C(C)=C/[C@@H]3CC[C@@H](O)[C@H](OC)C3)[C@H](C)[C@@H](O)CC1=O)[C@H](C)C[C@@H]2OC [TAC, tacrolimus]
- evenness of the gut microbiota (Simpson's and Heip's evenness indexes) [6, 10]: significant reduction
- indexes combining richness and evenness (Shannon and Simpson indexes) [6, 10]: significantly reduced
- richness (Chao1 and Observed ASV indexes) [6, 10]: did not affect
- relative abundance of Clostridiales incertae sedis XIII ([6]; family level, 5 days TAC): decrease
- relative abundance of Lachnospiraceae ([6]; family level, 5 days TAC): decrease
- relative abundance of Rikenellaceae ([6]; family level, 5 days TAC): increase
- relative abundance of Ruminococcaceae ([6]; family level, 5 days TAC): decrease
- relative abundance of Verrucomicrobiaceae ([6]; family level, 5 days TAC): increase
- relative abundance of Akkermansia ([6]; genus level, 5 days TAC): increased
- relative abundance of Alistipes ([6]; genus level, 5 days TAC): increased
- relative abundance of Oscillibacter ([6]; genus level, 5 days TAC): decreased
- relative abundance of Ruminococcus 2 ([6]; genus level, 5 days TAC): decreased
- variability in the microbiota dataset accounted for by TAC administration ([6]; genus level, after 5 days of treatment, PERMANOVA p < 0.05): 15%
- change in total bacterial load over time [7]: did not observe any significant change
- parent drug recovered unchanged in the faeces or urine [1]: less than 0.5%
- time of absorption peak after drug intake ([1]; human population): around 2 h
- time to steady-state (5 times the half-life) ([1]; human): ~ 60 h
